Assay results taken from ChEMBL document CHEMBL1201862, “PubChem BioAssay data set” (2004).
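Growth conditions: 96-well plates. Treatment: test compound, 48 hours, 5 concentrations. Analysis: linear interpolation between bracketing concentrations; unreached endpoints set to highest concentration. GI50 = concentration required for 50% inhibition of growth.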 The source made the active and inactive calls. Rule as the data show it: active = GI50 up to about 1.1 µM and inactive = higher.

Experiments:
Assay in all cases: NCI anticancer screen, dose series, 48 h
SNB-75 = test system: SNB-75
M14 = test system: M14
IGROV-1 = test system: IGROV-1
MOLT-4 = test system: MOLT-4
DU-145 = test system: DU-145
ACHN = test system: ACHN
OVCAR-5 = test system: OVCAR-5
MDA-N = test system: MDA-N
MCF7 = test system: MCF7
K562 = test system: K562
SK-OV-3 = test system: SK-OV-3
NCI-H23 = test system: NCI-H23
Hs-578T = test system: Hs-578T
UACC-62 = test system: UACC-62
786-0 = test system: 786-0
SW-620 = test system: SW-620
NCI-H522 = test system: NCI-H522
SK-MEL-5 = test system: SK-MEL-5
SN12C = test system: SN12C
A498 = test system: A498

Row | SMILES | GI50 (SNB-75) | GI50 (M14) | GI50 (IGROV-1) | GI50 (MOLT-4) | GI50 (DU-145) | GI50 (ACHN) | GI50 (OVCAR-5) | GI50 (MDA-N) | GI50 (MCF7) | GI50 (K562) | GI50 (SK-OV-3) | GI50 (NCI-H23) | GI50 (Hs-578T) | GI50 (UACC-62) | GI50 (786-0) | GI50 (SW-620) | GI50 (NCI-H522) | GI50 (SK-MEL-5) | GI50 (SN12C) | GI50 (A498)
1 | O=C(CCc1ccc(O)c(O)c1)NCCc1ccccc1 | > 48 µM (inactive) | > 85.7 µM (inactive) | 50.9 µM (inactive) | 12.7 µM (inactive) | > 88.1 µM (inactive) | 22 µM (inactive) | > 100 µM (inactive) | 19 µM (inactive) | 15.1 µM (inactive) | 16.5 µM (inactive) | 65.8 µM (inactive) | 35.2 µM (inactive) | > 82.6 µM (inactive) | 24.5 µM (inactive) | 31.6 µM (inactive) | > 100 µM (inactive) | 5.6 µM (inactive) | 22.4 µM (inactive) | > 31.6 µM (inactive) | > 100 µM (inactive)
2 | O=C(O)c1ccc(OCc2ccccc2)c(Cl)c1 | > 100 µM (inactive) | > 100 µM (inactive) | > 100 µM (inactive) | > 100 µM (inactive) | > 100 µM (inactive) | > 100 µM (inactive) | > 100 µM (inactive) | > 100 µM (inactive) | > 100 µM (inactive) | > 100 µM (inactive) | > 100 µM (inactive) | > 100 µM (inactive) | > 100 µM (inactive) | > 100 µM (inactive) | > 100 µM (inactive) | > 100 µM (inactive) | > 100 µM (inactive) | > 100 µM (inactive) | > 100 µM (inactive) | > 100 µM (inactive)
3 | NNC(=O)Nc1nc2ccc(NN)cc2[nH]1 | 25.6 µM (inactive) | 31.5 µM (inactive) | 42 µM (inactive) | 11.6 µM (inactive) | 97.7 µM (inactive) | 29 µM (inactive) | > 100 µM (inactive) | 28.2 µM (inactive) | 26.1 µM (inactive) | 18.7 µM (inactive) | 40.2 µM (inactive) | 44.1 µM (inactive) | 33.7 µM (inactive) | 21.1 µM (inactive) | 31.3 µM (inactive) | 23.8 µM (inactive) | 29.6 µM (inactive) | 22.9 µM (inactive) | 42.2 µM (inactive) | 23.6 µM (inactive)
4 | Cn1cco/c1=N/c1ccc(Cl)c(Cl)c1 | > 10 µM (inactive) | > 10 µM (inactive) | > 10 µM (inactive) | > 10 µM (inactive) | > 10 µM (inactive) | > 10 µM (inactive) | > 10 µM (inactive) | > 10 µM (inactive) | > 10 µM (inactive) | > 10 µM (inactive) | > 10 µM (inactive) | > 10 µM (inactive) | > 10 µM (inactive) | > 10 µM (inactive) | > 10 µM (inactive) | > 10 µM (inactive) | > 10 µM (inactive) | > 10 µM (inactive) | > 10 µM (inactive) | > 10 µM (inactive)
5 | COc1ccc(C(=O)C(Br)C(Br)C(=O)O)cc1 (stereo not given) | 67.3 µM (inactive) | 54.1 µM (inactive) | 51.1 µM (inactive) | 14 µM (inactive) | 80.2 µM (inactive) | 44.2 µM (inactive) | 32.7 µM (inactive) | 38.1 µM (inactive) | 35.8 µM (inactive) | 29 µM (inactive) | 33.7 µM (inactive) | 39.4 µM (inactive) | 35.2 µM (inactive) | 47.9 µM (inactive) | 31.8 µM (inactive) | 23.3 µM (inactive) | 16.7 µM (inactive) | > 100 µM (inactive) | 47.2 µM (inactive) | > 100 µM (inactive)
6 | Cc1cc(NC(=O)NC(=O)c2ccccc2NC(=O)CN(C)C)ccc1Oc1ncc(Br)cn1 | 1.89 µM (inactive) | 1.58 µM (inactive) | 6.27 µM (inactive) | 4.95 µM (inactive) | 2.41 µM (inactive) | 18 µM (inactive) | 15.1 µM (inactive) | 0.221 µM (active) | 0.809 µM (active) | 2 µM (inactive) | 2.81 µM (inactive) | 4.67 µM (inactive) | 1.6 µM (inactive) | 2.21 µM (inactive) | 3.52 µM (inactive) | 2.02 µM (inactive) | 1.14 µM (inactive) | 1.45 µM (inactive) | 17.3 µM (inactive) | 0.929 µM (active)
7 | CN(C)S(=O)(=O)c1ccc2c(c1)/C(=C1/Nc3ccccc3C1=O)C(=O)N2 | 0.0617 µM (active) | > 100 µM (inactive) | 11.9 µM (inactive) | 14.1 µM (inactive) | 24.9 µM (inactive) | 12.1 µM (inactive) | > 100 µM (inactive) | > 100 µM (inactive) | 24.8 µM (inactive) | 34.8 µM (inactive) | 13.9 µM (inactive) | 16.1 µM (inactive) | 14.4 µM (inactive) | 14.7 µM (inactive) | 16 µM (inactive) | > 100 µM (inactive) | 25.5 µM (inactive) | > 100 µM (inactive) | 38 µM (inactive) | 29.8 µM (inactive)
8 | CC(O)CNC1=CC(=O)C(=O)c2ccccc21 (stereo not given) | 14.9 µM (inactive) | 15.5 µM (inactive) | 13.4 µM (inactive) | 23 µM (inactive) | 15.5 µM (inactive) | 18.5 µM (inactive) | 19.5 µM (inactive) | 18.4 µM (inactive) | 19.5 µM (inactive) | 28.9 µM (inactive) | 34.5 µM (inactive) | 16.5 µM (inactive) | 22.8 µM (inactive) | 12.9 µM (inactive) | 17.6 µM (inactive) | 15.5 µM (inactive) | 18.5 µM (inactive) | 2.82 µM (inactive) | 17.1 µM (inactive) | 27.7 µM (inactive)
9 | N=c1c2sc3nc4ccccc4n3c2ncn1Cc1ccccc1 | > 100 µM (inactive) | > 100 µM (inactive) | > 100 µM (inactive) | > 100 µM (inactive) | > 100 µM (inactive) | > 100 µM (inactive) | > 100 µM (inactive) | > 100 µM (inactive) | > 100 µM (inactive) | – | > 100 µM (inactive) | > 100 µM (inactive) | > 100 µM (inactive) | > 100 µM (inactive) | > 100 µM (inactive) | > 100 µM (inactive) | > 100 µM (inactive) | > 100 µM (inactive) | – | > 100 µM (inactive)
10 | O=[N+]([O-])c1ccc(N2N=C(c3c(O)ccc4ccccc34)CC2c2ccc(Cl)cc2)c([N+](=O)[O-])c1 (stereo not given) | 12.2 µM (inactive) | 18.5 µM (inactive) | 22.1 µM (inactive) | 10.1 µM (inactive) | 19.5 µM (inactive) | 27.4 µM (inactive) | 17.1 µM (inactive) | 33.1 µM (inactive) | 26.4 µM (inactive) | 5.28 µM (inactive) | 27.5 µM (inactive) | 19.1 µM (inactive) | 27.4 µM (inactive) | 7.13 µM (inactive) | 27.9 µM (inactive) | 25.3 µM (inactive) | 31.5 µM (inactive) | 20.4 µM (inactive) | 33.4 µM (inactive) | 22.6 µM (inactive)
11 | Cc1ccc(-c2cc(-c3ccc(Cl)cc3)nc(/N=C3\C(=O)N(CN4CCCCC4)c4ccc(Cl)cc43)n2)cc1 | 42.9 µM (inactive) | 15.6 µM (inactive) | 10.5 µM (inactive) | 11.7 µM (inactive) | 37.5 µM (inactive) | 29.6 µM (inactive) | 38.2 µM (inactive) | 21.3 µM (inactive) | 21.1 µM (inactive) | 19.9 µM (inactive) | 31.8 µM (inactive) | 19.1 µM (inactive) | 18.9 µM (inactive) | 23 µM (inactive) | 18.9 µM (inactive) | 24.3 µM (inactive) | 12.5 µM (inactive) | 19.8 µM (inactive) | 25.9 µM (inactive) | 18.8 µM (inactive)
12 | Cn1c2ccccc2c2c3c(c4c5ccccc5n(C)c4c21)C(=O)N(Cc1ccccc1)C3=O | > 100 µM (inactive) | > 100 µM (inactive) | 53.3 µM (inactive) | > 100 µM (inactive) | > 100 µM (inactive) | > 100 µM (inactive) | > 100 µM (inactive) | > 100 µM (inactive) | > 100 µM (inactive) | > 100 µM (inactive) | > 100 µM (inactive) | > 100 µM (inactive) | > 100 µM (inactive) | > 100 µM (inactive) | > 100 µM (inactive) | > 100 µM (inactive) | > 100 µM (inactive) | 77.4 µM (inactive) | > 100 µM (inactive) | 79.1 µM (inactive)
13 | COc1ccc(/C=C/c2cc(OC)c(OC)c(OC)c2)cc1O[Si](C)(C)C(C)(C)C | 2.03 µM (inactive) | 5.97 µM (inactive) | 8.95 µM (inactive) | 4.22 µM (inactive) | 7.11 µM (inactive) | 7.87 µM (inactive) | 33.5 µM (inactive) | 2.27 µM (inactive) | 3.6 µM (inactive) | – | 52.7 µM (inactive) | 5.62 µM (inactive) | 3.15 µM (inactive) | 3.35 µM (inactive) | 10.4 µM (inactive) | 2.91 µM (inactive) | 1.87 µM (inactive) | 1.98 µM (inactive) | 7.16 µM (inactive) | 12.7 µM (inactive)
14 | COC(=O)C1CCC(=S)N1C(=O)c1ccccc1 (stereo not given) | > 100 µM (inactive) | > 100 µM (inactive) | > 100 µM (inactive) | 26.5 µM (inactive) | > 100 µM (inactive) | > 100 µM (inactive) | > 100 µM (inactive) | > 100 µM (inactive) | > 100 µM (inactive) | 4.94 µM (inactive) | > 100 µM (inactive) | > 100 µM (inactive) | > 100 µM (inactive) | > 100 µM (inactive) | > 100 µM (inactive) | – | > 100 µM (inactive) | > 100 µM (inactive) | – | > 100 µM (inactive)
